Measurements published in ChEMBL document CHEMBL1759844, “Design, synthesis and antimycobacterial activity of cinnamide derivatives: a molecular hybridization approach” (Bioorg Med Chem Lett, 2011).

Assays:
[1] = tested on: Mycobacterium tuberculosis; assay: Antimicrobial activity against Mycobacterium tuberculosis H37Rv after 48 hrs by resazurin microplate broth microdilution method; assay type: functional
[2] = Cytotoxicity against african green monkey Vero cells after 72 hrs by MTT assay; assay type: cell-based; conditions: chlorocebus sabaeus
[3] = Selectivity index, ratio of CC50 for african green monkey Vero cells to MIC for Mycobacterium tuberculosis H37Rv; assay type: functional
[4] = tested on: Mycobacterium tuberculosis; assay: Antimicrobial activity against Mycobacterium tuberculosis H37Rv after 48 hrs by resazurin microplate broth microdilution method in presence of rifampicin; assay type: functional

Row | Compound | MIC [1] | CC50 at 72 h [2] [µM] | Selectivity Index [3] | fractional inhibitory concentration index (FICI) [4]
1 | O=C(/C=C/c1ccccc1)N1CCCN(C(=O)/C=C/c2ccccc2)CC1 | 17.3 µM | 708 | 41 | 
2 | O=C(/C=C/c1ccccc1)NCCNC(=O)/C=C/c1ccccc1 | 5.1 µM | 618 | 121 | 0.31
3 | O=C(/C=C/c1ccccc1)N1CCN(C(=O)/C=C/c2ccccc2)CC1 | 9 µM | 855 | 95 | 
4 | O=C(/C=C/c1ccccc1)NCCN1CCN(C(=O)/C=C/c2ccccc2)CC1 | 16.7 µM | 480 | 29 | 
5 | Cc1ccc(/C=C/C(=O)NCCNC(=O)/C=C/c2ccc(C)cc2)cc1 | 144 µM | 565 | 4 | 
6 | COc1ccc(/C=C/C(=O)NCCNC(=O)/C=C/c2ccc(OC)cc2)cc1 | 132 µM | 680 | 5 | 
7 | O=C(/C=C/c1ccc(Cl)cc1)NCCNC(=O)/C=C/c1ccc(Cl)cc1 | 129 µM | 788 | 6 | 
8 | O=C(/C=C/c1ccccc1Cl)NCCNC(=O)/C=C/c1ccccc1Cl | 64.4 µM | 725 | 11 | 
9 | O=C(/C=C/c1cccc([N+](=O)[O-])c1)NCCNC(=O)/C=C/c1cccc([N+](=O)[O-])c1 | 68.5 µM | 615 | 9 | 
10 | COc1ccccc1/C=C/C(=O)NCCNC(=O)/C=C/c1ccccc1OC | 65.8 µM | 695 | 11 | 
11 | O=C(/C=C/c1c(Cl)cccc1Cl)NCCNC(=O)/C=C/c1c(Cl)cccc1Cl | 54.8 µM | 653 | 12 | 
12 | O=C(/C=C/c1ccco1)NCCNC(=O)/C=C/c1ccco1 | 10.8 µM | 683 | 63 | 
13 | O=C(/C=C/c1cccs1)NCCNC(=O)/C=C/c1cccs1 | 9.41 µM | 692 | 74 | 
14 | O=C(/C=C/c1ccc(Cl)c(Cl)c1)NCCNC(=O)/C=C/c1ccc(Cl)c(Cl)c1 | 54.8 µM | 653 | 12 | 
15 | CC[C@@H](CO)NCCN[C@@H](CC)CO [ETHAMBUTOL] | 15.3 µM | 1470 | 96 | 
16 | CO[C@H]1/C=C/O[C@@]2(C)Oc3c(C)c(O)c4c(O)c(c(/C=N/N5CCN(C)CC5)c(O)c4c3C2=O)NC(=O)/C(C)=C\C=C\[C@H](C)[C@H](O)[C@@H](C)[C@@H](O)[C@@H](C)[C@H](OC(C)=O)[C@@H]1C [RIFAMPIN] | 0.125 µg/mL |  |  | 
